Reference: patent publication US20250129331A1, “MEDIUM COMPOSITION FOR CULTURE OF EXTRAEMBRYONIC ENDODERM STEM CELLS” (SEOUL NATIONAL UNIVERSITY R&DB FOUNDATION, priority 2023, published 2025)
“Also recorded” adds a separate entry of the source.

Legend:
Type in all cases: cell-based, pig
[1] = system: porcine XEN cells; assay: Withdrawal of signaling molecules or supplements from porcine XEN cell medium (morphology, AP staining, GATA6 ICC); settings: for colony morphology / proliferation on withdrawal of the factor: factor withdrawn from medium with B27, CHIR, FGF2, LIF, Act A, FIG. 3a; for AP staining and GATA6 expression on withdrawal of the factor: factor withdrawn, FIG. 3b, 3c
Protocol: Before staining, all cell samples were pre-cultured at 4° C. for 10 minutes and fixed with 4% paraformaldehyde for 15 minutes. After washing with Dulbecco's Phosphate Buffered Saline (DPBS) (Welgene), the fixed cells were stained with a buffer solution containing nitro blue tetrazolium chloride and 5-bromo-4-chloro-3-indolyl phosphate toluidine salt stock solution (Roche; Basel, Switzerland) at room temperature for 30 minutes. Stained cells were observed under an inverted microscope.
For immunostaining, the cells were fixed in 4% (w/v) paraformaldehyde. After washing with Dulbecco's Phosphate Buffered Saline (DPBS), the fixed cells were treated with 0.2% Triton-X100 (Sigma-Aldrich) at 4° C. for 2 hours. The cells were then treated with Dulbecco's Phosphate Buffered Saline (DPBS) containing 10% (v/v) goat or donkey serum for 1 hour to prevent non-specific binding. Serum-treated cells were cultured with primary antibodies at 4° C. for 24 hours. The primary antibodies used were as follows: rabbit anti-SOX2 (1:200, Millipore; AB5603), rabbit anti-NANOG (1:200, PeproTech; Rocky Hill, NJ, USA; 500-P236), chicken anti-OCT4 (1:100, Abcam; Cambridge, UK; ab134218), goose anti-GATA6 (15 μg/mL; R&D systems; AF1700), goose anti-SOX17 (1:200, R&D systems; AF1924), and rabbit anti-GATA4 (1:200, Abcam; ab84593). After incubation with primary antibodies, the cells were treated with Alexa Fluor-conjugated secondary antibodies at 4° C. for 24 hours. Nuclei were stained with Hoechst 33342 (Molecular Probes; Eugene, OR, USA). Images of stained cells were taken using a TE2000-U inverted fluorescence microscope (Nikon; Tokyo, Japan).
FIGS. 3a, 3b and 3c show changes in the withdrawal of signaling molecules or supplements for XEN cells.
In order to optimize the culture system of porcine XEN cells, B27 supplement, CHIR, FGF2, LIF or Act A was withdrawn from the medium during maintenance, and essential growth factors and signaling molecules were identified. Colonies were morphologically analyzed (FIG. 3a). […] In order to verify the responsiveness to these factors, AP staining and ICC for GATA6, which is a representative XEN cell marker, were performed to support the morphological analysis results (FIGS. 3b and 3c).

[2] = system: porcine XEN cells; assay: Culture of porcine XEN cells under various concentrations of essential factors (colony number, qPCR); settings: for concentration range appropriate for XEN cell culture: 7 days, colony number and qPCR of GATA6, SALL4, SPARC
Protocol: Total RNA was extracted using TRIzol reagent (Invitrogen; Carlsbad, USA) and cDNA was synthesized using High-Capacity RNA-to-cDNA Kit (Applied Biosystems; Waltham, MA, USA). cDNA was amplified using the primer sets listed in Table 1 below and PowerSYBR® Green PCR Master Mix (Applied Biosystems).
In addition, in order to fine-tune the culture system, porcine XEN cells were cultured under various concentrations of essential factors including FGF2, LIF and CHIR99021.

[3] = system: porcine XEN cells; assay: Screening of serum-free culture conditions (signaling molecules, KSR, B27) for porcine XEN cells; settings: FIG. 2a
Protocol: Porcine XEN cells were cultured under various conditions. Each of six fetal bovine serum (FBS) (three different batches purchased from Hyclone, Biowest, TCB and Genedepot) was applied to maintain porcine XEN cells. In addition, several signaling molecules and supplements were added to the basal medium supplemented with 15% (v/v), 10% (v/v) or 5% (v/v) knockout serum replacement (KSR) (Gibco; Gaithersburg, MD, USA) and tested. Factors tested were fibroblast growth factor 2 (FGF2) (R&D Systems; Minneapolis, MN, USA), human recombinant leukemia inhibitory factor (hrLIF) (Millipore; MA, USA), 5 ng/ml activin A (Activin A; R&D Systems), CHIR99021 (Cayman chemical; Ann Arbor, MI, USA), which is a GSK-3B inhibitor, and 1×B27 supplement (Gibco). The basal medium was a DMEM/F12 based medium, which consisted of 1× Glutamax, 0.1 mM β-mercaptoethanol and 1× antibiotic-antimycotic (all of which are manufactured by Gibco). The medium was changed every 24 hours and cultured under conditions of 5% CO2, 5% O2 and 38° C.
The present inventors performed screening of various factors in a DMEM/F12-based KSR-containing medium, which is commonly used for a serum-free medium in stem cells.

Molecule	colony morphology / proliferation on withdrawal of the factor [1]	AP staining and GATA6 expression on withdrawal of the factor [1]	concentration range appropriate for XEN cell culture [2]	doubling time ([3]; DMEM/F12-based KSR-containing medium, factor alone)	proliferation / growth of XEN cells ([3]; DMEM/F12-based KSR-containing serum-free medium, 2b)	number of XEN colonies ([2]; low concentration of the factor, FIG. 4a, 4b)	self-renewal of porcine XEN cells ([1]; high concentration, control versus Act A withdrawn)
Cc1c[nH]c(-c2cnc(NCCNc3ccc(C#N)cn3)nc2-c2ccc(Cl)cc2Cl)n1 [CHIR99021, reference compound]	colony boundaries collapsed and cell density within colonies decreased	detected locally	0.5 to 4.5 µM	–	–	–	–
FGF2: fibroblast growth factor 2 (FGF2) (R&D Systems)	no colonies after 4 days	detected locally	10 to 100 ng/mL	prolonged	insufficient to proliferate XEN cells	few colonies were detected	–
LIF: human recombinant leukemia inhibitory factor (hrLIF) (Millipore)	cell proliferation was inhibited	detected locally; also recorded: intense GATA6 expression only in the colony center	0.1 to 20 ng/mL	–	–	–	–
Act A: activin A (R&D Systems) (protein, UniProt P08476 311-426, looked up, Inhibin beta A chain) Inhibin beta A chain: GLECDGKVNICCKKQFFVSFKDIGWNDWIIAPSGYHANYCEGECPSHIAGTSGSSLSFHSTVINHYRMRGHSPFANLKSCCVPTKLRPMSMLYYDDGQNIIKKDIQNMIVEECGCS	–	evenly positive	–	–	–	–	inhibits the self-renewal
